A short description of data set [1]: Stability of sample in open dish exposed to the air at ambient temperature (color change). The format is physicochemical. Here is the method:
(§1) 17.9 g of halide-free glucosamine base was mixed with 150 cc of purified water in a reaction vessel. After a clear solution was obtained, 16 g of α-hydroxy octanoic acid were slowly added, with stirring, to the glucosamine base solution. It was noted that the reaction was slightly exothermic since the temperature rose to 35° C. The reaction mixture was filtered and the water was removed by freeze-drying at a pressure of about 200 milliTorre and a temperature of about −45° C. 33 g of an off-white crystalline powder were obtained. The product was placed in a capped bottle that was placed in the refrigerator. […] A sample of the product was placed in an open dish exposed to the air at ambient temperature.
Example 1 was repeated using 300 cc of purified water to which 16.5 g of polyethylene glycol homopolymer had been added. 49 g (97.2% yield) of the white salt product were obtained. A sample of this product was placed in an open dish exposed to the air at ambient temperature.
A sample of the Example 3 product was placed in a dish exposed to the air at ambient temperature. […] A sample of the Example 4 product was placed in a dish exposed to the air at ambient temperature.

Data set [2] in a line: Stability of product kept in capped bottle in the refrigerator (color). The format is physicochemical. Particulars: six months. Here is the method:
as §1

The source of these data is patent publication US7754875B1, “Halide-free glucosamine base-organic acid salt compositions” (JFC Technologies, LLC, priority 2004, dated 2010).

As for `CCCCCCC(O)C(=O)O.NC1C(O)OC(CO)C(O)C1O` (stereo not drawn) [Example 1], in data set [1] (open dish, 3 days), the “color of sample after exposure to the air at ambient temperature” value is reported as “developed a yellow color”. The “color of product kept in the refrigerator” value in data set [2] was “remained off-white in color”. Turning to `N[C@H]1C(O)O[C@H](CO)[C@@H](O)[C@@H]1O.O=C(O)CC(O)(CC(=O)O)C(=O)O` [Example 3], the “color of sample after exposure to the air at ambient temperature” value in data set [1] (dish, 1 day) is given as “developed a yellow-orange color”.
